In article PMC4742142, “Identification of novel, in vivo active Chk1 inhibitors utilizing structure guided drug design” (Oncotarget, 2015):
“And” between values parts separate entries of the source, which are not always exact repeats. Equal entries are not always repeated. “Also recorded” adds a separate entry of the source.

Tests used:
HT29 cells [1] = assay: Checkpoint abrogation assay (gemcitabine, nocodazole, pHH3 (S10)); type: cell-based, human
Protocol: The ability of V158411 to abrogate gemcitabine induced S-phase arrest was further characterized using a checkpoint abrogation assay. Cells were pre-treated with gemcitabine for 16 hours followed by increasing concentrations of V158411 in the presence of nocodazole, an inhibitor of microtubule polymerization, for a further 24 hours. Mitotic cells were then scored for pHH3 (S10) expression. p53 defective HT29 cells exposed to gemcitabine, which induces arrest in S-phase, were negative for pHH3 (S10) staining. V158411 treatment abrogated the gemcitabine induced S-phase arrest allowing cells to progress through into mitosis where they were trapped by nocodazole. These cells stained positive for pHH3 and are indicative of checkpoint abrogation.

Chk2 = Chk2 (Homo sapiens, UniProt O96017); assay: Etoposide induced Chk2 autophosphorylation (pS516) in HT29 cells, immunoblotting; type: cell-based; design: endogenous in cells; host or cells: HT29; conditions: 1 hour compound then 25 μM etoposide 5 hours
Protocol: Figure 3 Effect of V158411 on etoposide, gemcitabine and camptothecin induced DNA damage checkpoint and cell cycle proteins A. HT29 cells were exposed to increasing concentrations of V158411 for 1 hour followed by 25 μM etoposide for a further 5 hours. Auto-phosphorylation of Chk1 and Chk2 was determined by immunoblotting. B. HT29 cells were treated with gemcitabine (25 nM) or camptothecin (50 nM) for 16 hours followed by increasing doses of V158411 for a further 24 hours. C. HT29 cells were treated with 500 nM V158411 for 1 hour, media removed and replaced with drug free. Cells were harvested at the indicated time points post the removal of V158411. D. HT29 cells were treated with 0 or 100 nM camptothecin for 16 hours followed by V158411 for 2 - 24 hours. After the indicated time, media was removed and replaced with drug free media. All cells were harvested 24 hours after the initial addition of V158411. Protein expression was characterized by immunoblotting as described in materials and methods.
Anti-pHistone H3 (S10) was obtained from Millipore; pCdc2 (Y15), pCdc25C (S216), Chk1, pChk1 (S317), pChk2 (S516), Cyclin B1, pH2AX (S139), GAPDH and Actin from Cell Signaling Technologies and pChk1 (S296) from Abcam. […] Protein concentration was determined using BCA kit (Pierce). […]

Colo205 xenografts = assay: Colo205 xenograft antitumor efficacy; type: in vivo
Source text: Xenograft studies were undertaken by Charles River Laboratories Discovery Services, North Carolina. On the day of tumor cell implant, Colo205 cells were harvested and resuspended in 50% Matrigel matrix (BD Biosciences) in PBS at a concentration of 5 × 10^6 cells/mL. Each test mouse received 1 × 10^6 Colo205 cells implanted subcutaneously (SC) in the flank of female athymic nude mice (HRLN or NCr nu/nu), and tumor growth was monitored as the average size approached 100-150 mm^3. The SW620 tumor line was maintained by serial SC transplantation in female athymic nude mice (HRLN nu/nu). Tumor fragments, approximately 1 mm^3 each, were implanted SC into the right flank of each animal and allowed to grow towards a target size of 100-150 mm^3. On day 1 of the study, tumors were randomized into treatment groups before compound administration.
V158411 was formulated in D5W and administered via IV injection into the tail vein. Cyclic treatment regimens were followed and treatment ranged from 2-3 cycles.
Tumor size was measured with electronic calipers and tumor volume calculated according to the formula ((width × width) × length) /2.
The study endpoint was defined as a tumor volume of 750 mm^3 for Colo205 or 1500 mm^3 for SW620, or day 60, whichever came first. Each animal was euthanized when its' tumor reached this endpoint. The time to endpoint (TTE) for each mouse was calculated from the equation TTE = (log10(endpoint volume)-b)/m where b is the intercept and m the slope of the line obtained by linear regression of a log-transformed tumor growth data set.

HT29 cells [2] = assay: Clonogenicity (colony formation) assay; type: cell-based, human; conditions: HT29, 300 nM V158411 with gemcitabine, camptothecin or SN38
Protocol: HT29 cells were plated at a density of 300 cells per well in 6-well plates and allowed to attach for 4 hours. Cells were treated with gemcitabine, camptothecin or SN38 in the absence or presence of V158411 for 24 hours followed by drug free media for a further 14 days. Resulting colonies were stained and fixed with 0.1% crystal violet in 10% formaldehyde.

[3] = Colo205, 75 mg/kg irinotecan IP followed by 30 mg/kg V158411 IV
[4] = Colo205, 75 mg/kg irinotecan IP followed by 60 mg/kg V158411 IV

Chain of Chk2 (O96017 whole entry): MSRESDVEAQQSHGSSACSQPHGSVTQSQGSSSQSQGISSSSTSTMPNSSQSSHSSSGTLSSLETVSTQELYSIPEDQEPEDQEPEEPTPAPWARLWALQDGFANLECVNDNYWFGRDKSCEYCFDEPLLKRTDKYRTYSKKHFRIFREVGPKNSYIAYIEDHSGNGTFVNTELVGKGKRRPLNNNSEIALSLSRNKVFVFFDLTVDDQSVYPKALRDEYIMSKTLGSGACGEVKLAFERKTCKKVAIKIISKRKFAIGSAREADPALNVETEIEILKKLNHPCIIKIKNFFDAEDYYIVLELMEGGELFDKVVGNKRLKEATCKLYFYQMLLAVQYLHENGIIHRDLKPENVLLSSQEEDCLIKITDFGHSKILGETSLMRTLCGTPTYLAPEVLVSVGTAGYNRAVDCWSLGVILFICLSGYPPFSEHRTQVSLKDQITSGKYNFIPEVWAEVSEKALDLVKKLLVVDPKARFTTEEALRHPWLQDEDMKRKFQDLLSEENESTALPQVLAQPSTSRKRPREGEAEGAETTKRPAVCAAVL

CN(C)CC(C)(C)COc1ccc2[nH]c(-c3cc(NC(=O)c4cnn(Cc5ccccc5)c4)c[nH]c3=O)cc2c1 [V158411]
concentration of maximal abrogation of gemcitabine induced S-phase arrest (HT29 cells [1]): around 300 nM | EC50 (HT29 cells [1]; Homo sapiens, HT-29, gemcitabine 16 hours then compound plus nocodazole 24 hours, read-out: Gem pHH3 (S10) MI EC50 (abrogation of gemcitabine induced S-phase arrest)): 79 nM | IC50 (Chk2): 904 nM | Median TTE (Colo205 xenografts; Colo205, 60 mg/kg IV V158411 monotherapy, untreated 19.8 days): 22.3 days | single agent anti-tumor activity (Colo205 xenografts; Colo205, 60 mg/kg V158411 monotherapy): inactive; also recorded: no single agent activity | %TGD (Colo205 xenografts; [3]): 129% | T-C (Colo205 xenografts; [3]): 25.6 | Median TTE (Colo205 xenografts; Colo205, 75 mg/kg irinotecan IP followed by 30 mg/kg V158411 IV 2 hours later, q7d 3 cycles): 45.4 days | %TGD (Colo205 xenografts; [4]): 203% | T-C (Colo205 xenografts; [4]): 40.2 | Median TTE (Colo205 xenografts; Colo205, 75 mg/kg irinotecan IP followed by 60 mg/kg V158411 IV 2 hours later, q7d 3 cycles, study end day 60): 60.0 days and 60 days | mean body weight nadir (Colo205 xenografts; Colo205, irinotecan plus V158411 combination therapy, day 4): −2.7% | effect on fraction of cells killed in colony formation (HT29 cells [2]): significantly increased the fraction of cells killed by all three agents
